# Legend:
# [1] = Release of drug from coated stents in PBS or PEG/water; type: physicochemical; conditions: PBS pH 7.4 or PEG 400/water 40/60 v/v, 37° C., stable = less than 10% of variation of the drug release
# Protocol: Four 2 cm pieces of coated stents as described above are placed into 100 ml of phosphate buffer solution (PBS) having a pH of 7.4. Another 4 pieces from each series are placed into 100 ml polyethylene glycol (PEG)/water solution (40/60 v/v, MW of PEG=400). The stent pieces are incubated at 37° C. in a shaker. The buffer and PEG solutions are changed daily and different assays are performed on the solution to determine the released 40-O-(2-hydroxyethyl)-rapamycin concentrations. Such assays can show a stable release of 40-O-(2-hydroxyethyl)-rapamycin from coated stents for more than 45 days. By the term “stable release of 40-O-(2-hydroxyethyl)-rapamycin” is meant less than 10% of variation of the drug release. Controlled release techniques used by a person skilled in the art allow an unexpected easy adaptation of the required drug release rate. Thus, by selecting appropriate amounts of reactants in the coating mixture it is possible to easily control the bioeffectiveness of the rapamycin or rapamycin derivastive coated stents.
# [2] = system: rat carotid artery balloon injury model; assay: Inhibition of late neointimal lesion formation in the 28 day rat carotid artery balloon injury model; type: in vivo; conditions: for percent inhibition of neointimal lesion formation: oral, 28 days post-balloon injury
# Protocol: A1. Inhibition of Late Neointimal Lesion Formation in the 28 Day Rat Carotid Artery Balloon Injury Model
# Compounds of formula I are tested in the following rat model.
# Rats are dosed orally with placebo or a compound of formula I. Daily dosing starts 3 days prior to surgery and continues for 31 days. Rat carotid arteries are balloon injured using a method described by Clowes et al. Lab. Invest. 1983; 49; 208-215. Following sacrifice at 28 days post-balloon injury, carotid arteries are removed and processed for histologic and morphometric evaluation. […] For example for 40-O-(2-hydroxyethyl)-rapamycin administered at 0.5, 1.0, and 2.0 mg/kg, the percent inhibition is similar at all three doses: inhibition is 31% at the lowest dose (0.5 mg/kg) and 39% at the highest dose (2.0 mg/kg). Compounds of formula I, e.g. 40-O-(2-hydroxyethyl)-rapamycin, have the beneficial effect to inhibit lesions at 4 weeks post-ballooning.
# [3] = system: ballooned carotid of Sprague Dawley rats; assay: Inhibition of restenosis at 14 days in the rat carotid stent model, perivascular local delivery; type: in vivo; conditions: local perivascular administration, 10 to 200 μg/day
# Protocol: A.3 Inhibition of Restenosis at 14 Days in the Rat Carotid Stent Model
# Male Sprague Dawley rats weighing […] are housed individually and allowed to acclimate prior to surgery. All animals receive standard rat chow and water ad libitum. Group size is 12 animals per group.
# The drug(s) administration is perivascular. A segment of ballooned carotid is encircled with a 1 cm length of silastic tubing (0.25 inch inside diameter, 0.47 inch outside diameter) to which is attached a catheter which feeds into an osmotic pump containing either compound or vehicle. This delivery system provides continuous, local delivery to the adventitia of the wrapped portion of vessel. Local drug(s) administration ranges between 5 μg and 10 mg, locally per day, depending on the solubility characteristics of the individual compounds. […]
# Animals are killed at 14 days post-balloon injury. […] Animals are killed by administration of an overdose of ketamine and rompun, the osmotic pumps are recovered and the volume of remaining content is recorded to ensure that pump failure has not occurred.
# Carotid, arteries are excised and immersion fixed, then transferred to Ringer's solution. […] The intimal lesion area and the medial area are determined by measurement of the internal elastic lamina, the external elastic lamina and the vessel/lumen interface.
# [4] = system: New Zealand White rabbit iliac arteries; assay: Inhibition of restenosis at 28 days in the rabbit iliac stent model; type: in vivo
# Protocol: A.2 Inhibition of Restenosis at 28 Days in the Rabbit Iliac Stent Model
# A combined angioplasty and stenting procedure is performed in New Zealand White rabbit iliac arteries. Iliac artery balloon injury is performed by inflating a 3.0×9.0 mm angioplasty balloon in the mid-portion of the artery followed by “pull-back” of the catheter for 1 balloon length. Balloon injury is repeated 2 times, and a 3.0×12 mm stent is deployed at 6 atm for 30 seconds in the iliac artery. Balloon injury and stent placement is then performed on the contralateral iliac artery in the same manner. A post-stent deployment angiogram is performed. All animals receive oral aspirin 40 mg/day daily as anti-platelet therapy and are fed standard low-cholesterol rabbit chow. Twenty-eight days after stenting, animals are anesthetized and euthanized and the arterial tree is perfused at 100 mmHg with lactated Ringer's for several minutes, then perfused with 10% formalin at 100 mmHg for 15 minutes. The vascular section between the distal aorta and the proximal femoral arteries is excised and cleaned of periadventitial tissue. The stented section of artery is embedded in plastic and sections are taken from the proximal, middle, and distal portions of each stent. All sections are stained with hematoxylin-eosin and Movat pentachrome stains. Computerized planimetry is performed to determine the area of the internal elastic lamina (IEL), external elastic lamina (EEL) and lumen. The neointima and neointimal thickness is measured both at and between the stent struts. The vessel area is measured as the area within the EEL. Data are expressed as mean ±SEM. Statistical analysis of the histologic data is accomplished using analysis of variance (ANOVA) due to the fact that two stented arteries are measured per animal with a mean generated per animal. A P<0.05 is considered statistically significant.
# A compound of formula I, e.g. 40-O-(2-hydroxyethyl)-rapamycin, is administered orally by gavage at a loading dose of 1.5 mg/kg one day prior to stenting, then dosed at 0.75 mg/kg/day from the day of stenting until day 27 post-stenting. In this model, the treatment with the compounds of formula I results in a marked reduction in the extent of restenotic lesion formation: for example, the treatment with 40-O-(2-hydroxyethyl)-rapamycin produces a significant (P<0.03) reduction in neointimal thickness (40% reduction), neointimal area (24% reduction), and percent arterial stenosis (26% reduction) with a significant 32% increase in lumen area. There is extensive neointimal formation in placebo-treated animals at 28 days, with the lesions consisting of abundant smooth muscle cells in proteoglycan/collagen matrix and apparent full endothelial healing.
# dialysis patients = assay: Prevention or reduction of vascular access dysfunction after insertion of an indwelling catheter in dialysis patients; type: in vivo, human; conditions: daily dose 0.75 to 20 mg, 3 month treatment, observation period 6 months
# Protocol: A5. Prevention or Reduction of Vascular Access Dysfunction in Association with the Insertion of an Indwelling Catheter into the Vein of a Patient
# One hundred fifty prospective dialysis patients, who undergo successful insertion of an indwelling, large bore catheter, into a vein are selected for the study. […] In addition, patients may also be given a calcium antagonist, nitrates and/or anti-platelet agents. These drugs are administered for 3 consecutive months following catheter insertion.
# [5] = oral gavage, loading 1.5 mg/kg then 0.75 mg/kg/day to day 27, 28 days post-stenting, P<0.03
compound,measurement,setting,value
CO[C@H]1C[C@@H]2CC[C@@H](C)[C@@](O)(O2)C(=O)C(=O)N2CCCC[C@H]2C(=O)O[C@H]([C@H](C)C[C@@H]2CC[C@@H](OCCO)[C@H](OC)C2)CC(=O)[C@H](C)/C=C(\C)[C@@H](O)[C@@H](OC)C(=O)[C@H](C)C[C@H](C)/C=C/C=C/C=C/1C [40-O-(2-hydroxyethyl)-rapamycin],duration of stable release from coated stents,[1],more than 45 days
same,neointimal lesion formation at 28 days following balloon injury,"[2]; oral daily dosing from 3 days prior to surgery for 31 days, 0.5 to 2.0 mg/kg",significantly reduce neointimal lesion formation
same,percent inhibition of neointimal lesion formation,[2]; 0.5 mg/kg,31%
same,percent inhibition of neointimal lesion formation,[2]; 2.0 mg/kg,39%
same,neointimal lesion formation at 14 days post ballooning,[3],reduces neointimal lesion formation
same,histology of the intima of stented arterial segments,"[4]; majority of arterial segments, 28 days post-stenting",the intima is well healed
same,endothelialization of stented arteries (scanning electron microscopic analysis),"[4]; n=4 arteries, 28 days post-stenting",84%
same,increase in lumen area,"[4]; oral gavage, loading 1.5 mg/kg then 0.75 mg/kg/day to day 27, 28 days post-stenting",32%
same,reduction in neointimal area,[4]; [5],24%
same,reduction in neointimal thickness,[4]; [5],40%
same,reduction in percent arterial stenosis,[4]; [5],26%
same,prevention or reduction of vascular access dysfunction,dialysis patients,demonstrate the efficacy

# From US20090036352A1, “DRUG DELIVERY SYSTEMS FOR THE PREVENTION AND TREATMENT OF VASCULAR DISEASES COMPRISING RAPAMYCIN AND DERIVATIVES THEREOF” (priority 2002, published 2009)
